The target in the first assay is T1, Human CaV2.2 channels (Homo sapiens, UniProt Q00975).
T1 construct: expressed in transfected cells; also stably expressing Kir2.3)
T1 sequence (Q00975 whole entry): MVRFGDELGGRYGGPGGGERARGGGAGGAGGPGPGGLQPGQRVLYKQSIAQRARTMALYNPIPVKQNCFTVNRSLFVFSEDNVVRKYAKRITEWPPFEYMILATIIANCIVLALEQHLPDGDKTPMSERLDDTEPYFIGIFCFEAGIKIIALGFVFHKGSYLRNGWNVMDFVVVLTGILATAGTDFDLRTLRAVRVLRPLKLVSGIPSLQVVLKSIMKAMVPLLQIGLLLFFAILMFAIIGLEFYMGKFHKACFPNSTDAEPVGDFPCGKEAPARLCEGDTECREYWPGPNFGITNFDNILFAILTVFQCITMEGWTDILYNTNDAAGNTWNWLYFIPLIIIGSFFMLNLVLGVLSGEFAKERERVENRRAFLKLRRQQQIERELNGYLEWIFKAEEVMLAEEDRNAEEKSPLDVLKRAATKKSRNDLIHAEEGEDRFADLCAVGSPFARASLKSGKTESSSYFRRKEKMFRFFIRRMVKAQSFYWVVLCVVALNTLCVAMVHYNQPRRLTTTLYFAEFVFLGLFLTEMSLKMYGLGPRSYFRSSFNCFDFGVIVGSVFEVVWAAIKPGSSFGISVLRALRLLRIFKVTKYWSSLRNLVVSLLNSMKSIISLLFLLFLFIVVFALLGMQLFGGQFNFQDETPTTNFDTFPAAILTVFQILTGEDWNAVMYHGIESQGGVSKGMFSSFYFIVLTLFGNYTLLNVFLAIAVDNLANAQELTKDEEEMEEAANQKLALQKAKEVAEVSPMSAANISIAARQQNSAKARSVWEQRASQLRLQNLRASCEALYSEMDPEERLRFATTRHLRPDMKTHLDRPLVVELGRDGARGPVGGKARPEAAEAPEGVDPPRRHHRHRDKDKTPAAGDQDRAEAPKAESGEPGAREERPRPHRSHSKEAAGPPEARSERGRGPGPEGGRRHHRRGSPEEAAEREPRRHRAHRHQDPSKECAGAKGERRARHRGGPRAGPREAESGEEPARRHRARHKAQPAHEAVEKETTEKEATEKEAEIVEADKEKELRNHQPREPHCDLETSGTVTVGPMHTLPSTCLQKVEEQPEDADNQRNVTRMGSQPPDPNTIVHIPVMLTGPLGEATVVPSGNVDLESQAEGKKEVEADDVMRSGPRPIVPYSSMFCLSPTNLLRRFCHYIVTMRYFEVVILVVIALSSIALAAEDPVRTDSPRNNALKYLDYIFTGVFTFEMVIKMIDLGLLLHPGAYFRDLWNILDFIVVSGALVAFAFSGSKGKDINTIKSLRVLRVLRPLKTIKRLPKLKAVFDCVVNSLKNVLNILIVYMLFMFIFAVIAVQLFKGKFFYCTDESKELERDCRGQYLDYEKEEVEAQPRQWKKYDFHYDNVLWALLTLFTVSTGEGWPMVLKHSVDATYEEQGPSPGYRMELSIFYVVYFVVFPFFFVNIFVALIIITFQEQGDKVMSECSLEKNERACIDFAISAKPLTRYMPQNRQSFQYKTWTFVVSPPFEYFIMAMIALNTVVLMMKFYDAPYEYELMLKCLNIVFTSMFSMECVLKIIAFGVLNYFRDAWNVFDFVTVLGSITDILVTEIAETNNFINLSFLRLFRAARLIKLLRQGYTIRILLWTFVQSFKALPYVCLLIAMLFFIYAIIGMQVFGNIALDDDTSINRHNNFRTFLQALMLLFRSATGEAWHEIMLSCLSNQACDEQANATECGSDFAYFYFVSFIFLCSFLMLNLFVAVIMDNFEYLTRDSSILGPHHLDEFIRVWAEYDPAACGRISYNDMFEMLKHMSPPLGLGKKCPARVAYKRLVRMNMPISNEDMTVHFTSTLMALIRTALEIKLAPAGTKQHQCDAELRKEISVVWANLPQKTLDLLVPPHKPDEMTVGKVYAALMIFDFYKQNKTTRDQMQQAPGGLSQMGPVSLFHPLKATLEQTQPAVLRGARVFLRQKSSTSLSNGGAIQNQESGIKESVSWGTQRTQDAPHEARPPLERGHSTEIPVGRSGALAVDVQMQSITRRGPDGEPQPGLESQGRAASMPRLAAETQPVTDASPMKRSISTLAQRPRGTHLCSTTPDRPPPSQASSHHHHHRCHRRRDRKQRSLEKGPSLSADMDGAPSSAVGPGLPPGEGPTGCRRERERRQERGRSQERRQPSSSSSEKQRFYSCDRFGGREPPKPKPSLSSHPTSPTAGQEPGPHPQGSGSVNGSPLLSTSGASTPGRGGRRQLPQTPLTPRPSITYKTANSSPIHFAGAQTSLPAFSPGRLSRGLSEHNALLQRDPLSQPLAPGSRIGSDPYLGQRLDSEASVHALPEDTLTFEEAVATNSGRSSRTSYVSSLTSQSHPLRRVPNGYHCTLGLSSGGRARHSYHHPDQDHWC
The assay is described as follows: Fluorescence assay for CaV2.2 channels using potassium depolarization to induce channel opening (FLIPR, Fluo 4). Type of assay: cell-based. The note with it: 3 μM test compound, 30 mM KCl assay buffer (inactivated channel state), HEK293 cells. The text has this: In the process, the Ca^2+ influx is quantified in the FLIPR assay with the aid of a Ca^2+-sensitive dye (type Fluo-4, Molecular Probes Europe BV, Leiden, the Netherlands) in a fluorescent imaging plate reader (FLIPR 3, Molecular Devices, Sunnyvale, USA), as described hereinafter.
[drawing 69] 2. Assay Descriptions and Biological Data: 2.1 Fluorescence Assay for CaV2.2 Channels Using Potassium Depolarization to Induce Channel Opening
Human CaV2.2 channels were stably expressed in HEK293 cells together with alpha2-delta and beta subunits of voltage gated calcium channels. In addition, an inwardly rectifying potassium channel (Kir2.3) was stably expressed in these cells to augment control of the cell membrane potential by the concentration of extracellular potassium ions. Raise of the extracellular potassium concentration leads to depolarization of the membrane potential and thus regulates the voltage dependent state of CaV2.2 channels. For preparation, cells were seeded in black poly-D-lysine coated 96-well plates (Becton Dickinson, Biocoat 4640) in 100 μL medium [500 mL DMEM/F-12 plus Glutamax (Invitrogen 31331-093) plus 5.5 mL MEM NEAA 100× (Invitrogen 11140-035) plus 50 mL FBS decomplemented (Invitrogen 10270-106) plus 200 μg/mL Geneticin (Invitrogen 10131-027) plus 50 μg/mL Hygromycin B (Invitrogen 10687-010) plus 2 μg/mL Blasticidin (anti-b15b Invivo-Gen) plus 0.2 μg/mL Puromycin (A 11138-03)] at a cell density of 30.000 cells per well. Plates were incubated at 37° C. (5% CO2) for 20 to 23 h. On the day of experiment medium was discarded and cells were loaded with Fluo 4 by addition of 100 μL of basic assay buffer (10 mM HEPES, 1 mM KCl, 149 mM NaCl, 0.8 mM CaCl2, 1.7 mM MgCl2, 10 mM Glucose, 0.1% BSA. pH 7.4) containing 2 μM Fluo 4 (Molecular Probes; F-14201), 0.01% pluronic acid (Molecular Probes; P-6866) and 2.5 mM probenecid (Molecular Probes; P36400). Cells were incubated in the dark at 25° C. for 60 min. Then dye containing buffer was discarded and 100 μL basic (1 mM KCl) or alternative (30 mM KCl) assay buffer was added. The alternative assay buffer contained altered concentrations of KCl (30 mM) and NaCl (120 mM) and was used in order to promote the inactivated channel state. After that 25 μL of basic or alternative assay buffer with or without test compound were added and cells were incubated again in the dark at 25° C. for 15 min. Fluorescence intensity was measured on a FLIPR 3 instrument (Molecular Devices Corp., Sunnyvale, Calif.) with excitation at 480 nm and emission at 535 nm. After continuously reading fluorescence for 30 sec, 50 μL of basic assay buffer containing 210 mM KCl(NaCl omitted) were added for depolarization. Peak fluorescent signal intensity was determined and the amplitude of the peak signal, normalized to base line, was used to measure channel inhibition by test compounds.
Turning to `CC1(S(=O)(=O)c2cccc(C(F)(F)F)c2)CCOC(c2cc(CC(F)F)n[nH]2)C1` (stereo not drawn) [Example 14 cis-EN2, 3-(2,2-Difluoro-ethyl)-5-[4-methyl-4-[[3-(trifluoromethyl)phenyl]sulfonyl]-tetrahydro-pyran-2-yl]-1H-pyrazole], the “Activity Category: %-Inhib (CaV2.2) @3 μM @30 mM KCl” value (from here on “Activity Category: %-Inhib”) is recorded as “A (%-Inhibition >95%)”. The same measure, in the same setting: the same measure for `CC1(S(=O)(=O)c2cccc(C(F)(F)F)c2)CCOC(c2cc(S(=O)(=O)C(F)(F)F)n[nH]2)C1` (stereo not drawn) [Example 27 cis-EN2, 3-(Trifluoro-methylsulfonyl)-5-[4-methyl-4-[[3-(trifluoromethyl)phenyl]sulfonyl]-tetrahydro-pyran-2-yl]-1H-pyrazole]: “B (%-Inhibition >75% up to ≤95%)”; for `CC1(S(=O)(=O)c2cccc(C(F)(F)F)c2)CCOC(c2cc(OCC(F)F)n[nH]2)C1` (stereo not drawn) [Example 32 cis-EN2, 5-(2,2-Difluoro-ethoxy)-3-[4-methyl-4-[[3-(trifluoromethyl)phenyl]sulfonyl]-tetrahydro-pyran-2-yl]-1H-pyrazole]: “B (%-Inhibition >75% up to ≤95%)”. Same read-out and setting: under `CC(C)CS(=O)(=O)c1cc(C2CC(C)(S(=O)(=O)c3cccc(C(F)(F)F)c3)CCO2)[nH]n1` (stereo not drawn) [Example 35 cis-EN2, 3-(2-Methyl-propylsulfonyl)-5-[4-methyl-4-[[3-(trifluoromethyl)phenyl]sulfonyl]-tetrahydro-pyran-2-yl]-1H-pyrazole] stands “A (%-Inhibition >95%)”.

Consider `CC(C)(C)CS(=O)(=O)c1cc(C2CC(C)(S(=O)(=O)c3cccc(C(F)(F)F)c3)CCO2)[nH]n1` (stereo not drawn) [Example 36 cis-EN2, 3-(2,2-Dimethyl-propylsulfonyl)-5-[4-methyl-4-[[3-(trifluoromethyl)phenyl]sulfonyl]-tetrahydro-pyran-2-yl]-1H-pyrazole], for which the “Activity Category: %-Inhib” value is on record as “A (%-Inhibition >95%)”.

The assay is the same for the next values; noted with them: 3 μM test compound, 30 mM KCl assay buffer (inactivated channel state), HEK293 cells; listed as 19 cis-EN1.
`CC(C)(O)c1cc(C2CC(C)(S(=O)(=O)c3cccc(C(F)(F)F)c3)CCO2)[nH]n1` (stereo not drawn) [Example 19 cis-EN1, 2-[5-[4-Methyl-4-[[3-(trifluoromethyl)phenyl]sulfonyl]-tetrahydro-pyran-2-yl]-1H-pyrazol-3-yl]-propan-2-ol]: the “Activity Category: %-Inhib” value is listed as “B (%-Inhibition >75% up to ≤95%)”.

The assay is the same for the next values; noted with them: 3 μM test compound, 30 mM KCl assay buffer (inactivated channel state), HEK293 cells; listed as 19 cis-EN2.
Take `CC(C)(O)c1cc(C2CC(C)(S(=O)(=O)c3cccc(C(F)(F)F)c3)CCO2)[nH]n1` (stereo not drawn) [Example 19 cis-EN2, 2-[5-[4-Methyl-4-[[3-(trifluoromethyl)phenyl]sulfonyl]-tetrahydro-pyran-2-yl]-1H-pyrazol-3-yl]-propan-2-ol]: the “Activity Category: %-Inhib” value is listed as “C (%-Inhibition >40% up to ≤75%)”.

The same assay, now with this note: 3 μM test compound, 30 mM KCl assay buffer (inactivated channel state), HEK293 cells; listed as 37 cis-EN1.
Regarding `CC1(S(=O)(=O)c2cccc(C(F)(F)F)c2)CCOC(c2cc(S(C)(=O)=O)n[nH]2)C1` (stereo not drawn) [Example 37 cis-EN1, 5-Methylsulfonyl-3-[4-methyl-4-[[3-(trifluoromethyl)phenyl]sulfonyl]-tetrahydro-pyran-2-yl]-1H-pyrazole], the “Activity Category: %-Inhib” value is “C (%-Inhibition >40% up to ≤75%)”.

The same assay, now with this note: HEK293, 3 μM test compound, 30 mM KCl assay buffer (inactivated channel state), HEK293 cells; read-out: Activity Category: %-Inhib (CaV2.2) @3 μM @30 mM KCl.
Turning to `CC1(S(=O)(=O)c2cccc(C(F)(F)F)c2)CCOC(c2cc(CC(F)F)n[nH]2)C1` (stereo not drawn) [Example 14 cis-EN1, 3-(2,2-Difluoro-ethyl)-5-[4-methyl-4-[[3-(trifluoromethyl)phenyl]sulfonyl]-tetrahydro-pyran-2-yl]-1H-pyrazole], the inhibition at 3 µM lay in the range of 75 to 95%. Still for that read-out and setting: the same measure for `CC1(S(=O)(=O)c2cccc(C(F)(F)F)c2)CCOC(c2cc(OCC(F)(F)F)n[nH]2)C1` (stereo not drawn) [Example 16 cis-EN2, 5-[4-Methyl-4-[[3-(trifluoromethyl)phenyl]sulfonyl]-tetrahydro-pyran-2-yl]-3-(2,2,2-trifluoro-ethoxy)-1H-pyrazole]: greater than 95%. Consider `CC1(S(=O)(=O)c2cccc(C(F)(F)F)c2)CCOC(c2cc(C3(O)COC3)n[nH]2)C1` (stereo not drawn) [Example 18 cis-EN1, 3-[5-[4-Methyl-4-[[3-(trifluoromethyl)phenyl]sulfonyl]-tetrahydro-pyran-2-yl]-1H-pyrazol-3-yl]-oxetan-3-ol], for which the inhibition at 3 µM was in the range of 40 to 75%. Same read-out and setting: the same measure for `CC1(S(=O)(=O)c2cccc(C(F)(F)F)c2)CCOC(c2cc(S(=O)(=O)C(F)(F)F)n[nH]2)C1` (stereo not drawn) [Example 27 cis-EN1, 3-(Trifluoro-methylsulfonyl)-5-[4-methyl-4-[[3-(trifluoromethyl)phenyl]sulfonyl]-tetrahydro-pyran-2-yl]-1H-pyrazole]: greater than 95%; for `CC1(S(=O)(=O)c2cccc(C(F)(F)F)c2)CCOC(c2cc(CS(=O)(=O)C(F)F)n[nH]2)C1` (stereo not drawn) [Example 28 cis-EN1, 3-[(Difluoro-methylsulfonyl)-methyl]-5-[4-methyl-4-[[3-(trifluoromethyl)phenyl]sulfonyl]-tetrahydro-pyran-2-yl]-1H-pyrazole]: 75 to 95%; for `CC1(S(=O)(=O)c2cccc(C(F)(F)F)c2)CCOC(c2cc(S(=O)(=O)CC(F)(F)F)n[nH]2)C1` (stereo not drawn) [Example 29 cis-EN1, 5-[4-Methyl-4-[[3-(trifluoromethyl)phenyl]sulfonyl]-tetrahydro-pyran-2-yl]-3-(2,2,2-trifluoro-ethylsulfonyl)-1H-pyrazole]: 75 to 95%. The same measure, in the same setting: under `CC(C)(C(N)=O)c1cc(C2CC(C)(S(=O)(=O)c3cccc(C(F)(F)F)c3)CCO2)[nH]n1` (stereo not drawn) [Example 30 cis-EN2, 2-Methyl-2-[5-[4-methyl-4-[[3-(trifluoromethyl)phenyl]sulfonyl]-tetrahydro-pyran-2-yl]-1H-pyrazol-3-yl]-propionamide] stands 40 to 75%; under `CC(C)(C#N)c1cc(C2CC(C)(S(=O)(=O)c3cccc(C(F)(F)F)c3)CCO2)[nH]n1` (stereo not drawn) [Example 31 cis-EN1, 2-Methyl-2-[5-[4-methyl-4-[[3-(trifluoromethyl)phenyl]sulfonyl]-tetrahydro-pyran-2-yl]-1H-pyrazol-3-yl]-propionitrile], greater than 95%. Same read-out and setting: under `CC1(S(=O)(=O)c2cccc(C(F)(F)F)c2)CCOC(c2cc(OCC(F)F)n[nH]2)C1` (stereo not drawn) [Example 32 cis-EN1, 5-(2,2-Difluoro-ethoxy)-3-[4-methyl-4-[[3-(trifluoromethyl)phenyl]sulfonyl]-tetrahydro-pyran-2-yl]-1H-pyrazole] stands greater than 95%; under `COCC(C)(C)c1cc(C2CC(C)(S(=O)(=O)c3cccc(C(F)(F)F)c3)CCO2)[nH]n1` (stereo not drawn) [Example 33 cis-EN1, 3-(2-Methoxy-1,1-dimethyl-ethyl)-5-[4-methyl-4-[[3-(trifluoromethyl)phenyl]sulfonyl]-tetrahydro-pyran-2-yl]-1H-pyrazole], greater than 95%. As for `CC(C)(CO)c1cc(C2CC(C)(S(=O)(=O)c3cccc(C(F)(F)F)c3)CCO2)[nH]n1` (stereo not drawn) [Example 34 cis-EN1, 2-Methyl-2-[5-[4-methyl-4-[[3-(trifluoromethyl)phenyl]sulfonyl]-tetrahydro-pyran-2-yl]-1H-pyrazol-3-yl]-propan-1-ol], the inhibition at 3 µM was 75 to 95%. The same measure, in the same setting: the same measure for `CC(C)CS(=O)(=O)c1cc(C2CC(C)(S(=O)(=O)c3cccc(C(F)(F)F)c3)CCO2)[nH]n1` (stereo not drawn) [Example 35 cis-EN1, 3-(2-Methyl-propylsulfonyl)-5-[4-methyl-4-[[3-(trifluoromethyl)phenyl]sulfonyl]-tetrahydro-pyran-2-yl]-1H-pyrazole]: 75 to 95%. The same measure, in the same setting: the same measure for `CC(C)(C)CS(=O)(=O)c1cc(C2CC(C)(S(=O)(=O)c3cccc(C(F)(F)F)c3)CCO2)[nH]n1` (stereo not drawn) [Example 36 cis-EN1, 3-(2,2-Dimethyl-propylsulfonyl)-5-[4-methyl-4-[[3-(trifluoromethyl)phenyl]sulfonyl]-tetrahydro-pyran-2-yl]-1H-pyrazole]: 75 to 95%.

The values are drawn from US10106530B2, “Pyrazolyl substituted tetrahydropyranylsulfones” (GRÜNENTHAL GMBH, priority 2015, dated 2018).
